Laboratory results reported in patent US20170184612A1, “USE OF LEUKOCYTES AND NOVEL BIOMARKERS IN THE DIAGNOSIS, CONFIRMATION, AND TREATMENT OF A NEUROLOGICAL DISORDER” (The Trustees of Columbia University in the City of New York, priority 2014, published 2017).

Experiments:
Type in all cases: cell-based, mouse
VM DA (TH+) neurons [1] = experiment: Antigen processing and presentation, […]-MHC-I immunolabel; conditions: IFN-γ with extracellular SIINFEKL, positive control
Description: Following exposure of SN neuronal cultures to OVA or vehicle for 7 days, neurons were exposed to IFN-γ or saline for 72 h (note that these cultures were never exposed to […] (SEQ ID NO: 9)). The cultures were then double immunolabeled for TH and an antibody that recognizes only the MHC-I complex when is occupied by […] (SEQ ID NO: 9) ([…]-MHC-I). Occasional label of astrocytes, but not neurons, for […]-MHC-I was observed when the cultures were exposed to the vehicle, IFN-γ, or OVA alone (FIG. 5A). […] The results herein indicate that OVA had been processed to […] (SEQ ID NO: 9) within these mixed neuron/astrocyte cultures and loaded into the MHC-I groove within neuronal cytosol, and that the resulting complex was presented on the neuronal plasma membrane.
IFN-γ (R&D Systems) was used at a range of non-toxic concentrations for neurons or OT-1 cells (10 μg/ml-100 ng/ml, 72h). […]
Images were captured using a Leica SP5 microscope system. There was no fluorescence bleed-through of secondary antibodies under the conditions used. […]
In order to assess the proportion of TH^+ and MAP-2^+ neurons that expressed MHC-I^+, first TH^+ and MAP-2^+ neurons were counted in 24 fields surrounding the border of the well at 20× magnification. The number of TH^+ or MAP-2^+ neurons with intact soma and two or more neurites equal to or greater than the diameter of the cell soma was counted. […]

VM DA (TH+) neurons [2] = experiment: OT-1 T cell cytotoxicity (killing) assay on VM DA neurons; conditions: combination of CTLs, IFN-γ and SIINFEKL
Description: OT-1 CD8^+ cell proliferation was assessed by BrdU incorporation. For OT-1 T cell cytotoxicity assays, DC and VM (from C57BL/6 and 56.129P2-B2mtm1Unc/J mice) cell cultures were incubated with neuronal medium or neuronal medium containing 100 ng/ml of IFN-γ (R&D Systems). Neurons were loaded with or without […] (SEQ ID NO: 9) peptide (1 μM), and, subsequently in vitro activated OT-1 cells were added at a density of 100,000 cells/well and co-incubated for 24 h.
We used the same conditions for VM cell cultures with microglial medium previously stimulated with LPS, NM or α-syn instead of IFN-γ. Neurons were pre-incubated with IFN-γ and […] (SEQ ID NO: 9) peptide as above, and then with: 1) a pan-caspase general inhibitor (Z-VAD-FMK, 20 μM, 24h, IMGENEX); 2) a specific granzyme/perforin inhibitor (concanamycin A, 100 nM, 24h, Sigma Aldrich); 3) a specific Fas/FasL antagonist (Kp7-6, 1 mM, 24h, EMD Biosciences) and 4) concanamycin A and Kp7-6 together. OT-1 cells were then added to the culture (100,000 cells/well) and maintained for 24 h.
Following immunocytochemical staining of VM neurons, we assessed the proportion of surviving DA (TH^+) and non-DA cells (MAP-2^+, TH^−). Total numbers of TH^+ and MAP-2^+ neurons were counted in 24 fields surrounding the border of the well at 20× magnification. The number of surviving TH+ neurons with an intact soma and two or more neurites equal to or greater than the diameter of the cell soma was counted and normalized to the number in untreated cultures.

OT-1 CTL cells = experiment: OT-1 CD8+ cell proliferation by BrdU incorporation; conditions: combination with IFN-γ; DC and VM neuronal cultures
Source text: The capacity of CTLs to respond to MHC-I induced SN neurons was examined first, by following CTL proliferation using 5-bromo-2-deoxyuridine (BrdU) incorporation.
Primary DCs were obtained from mouse […] femur hematopoietic stem cells. In brief, mouse femur hematopoietic stem cells from bone marrow were harvested from the hind legs of 8 to 12-week old male wild-type C57BL/6J and plated at 2×10^6 cells/ml density in DC culture medium (DMEM supplemented with 10% FBS, lx non-essential amino acids, 2 mM L-glutamine, 1 mM sodium pyruvate and 20 mM HEPES). For differentiation to dendritic cells, 10 ng/ml of recombinant mouse GM-CSF was added to media. Cells were fed every 2 days with fresh DMEM containing GM-CSF, and the cultures were trypsinized after 8 days and plated at 4×10^5 cells/cm^2 density to be used for experiments the following day (Tallóczy et al., 2008). OT-1 CD8^+ and OT-2 CD4^+ T cell lines, a kind gift from Dr. Raphael Clynes (Department of Medicine and Microbiology, Columbia University Medical Center), express a transgene encoding T cell receptor that specifically recognizes […] (SEQ ID NO: 9) peptide (derived from OVA) bound to MHC-I H-2Kb or to MHC-II I-A/I-E (Hogquist et al., 1994). Activated primary OT-1 and OT-2 T cells were generated by the addition of […] […]
OT-1 CD8^+ cell proliferation was assessed by BrdU incorporation. […]

SIINFEKL [8 amino acid peptide derived from OVA]
TH+ neurons with SIINFEKL-MHC-I immunolabel (VM DA (TH+) neurons [1]): ~70% | neuronal death (VM DA (TH+) neurons [2]; MHC-I null (KO) SN neurons): no neuronal death was triggered | TH+ neurons killed (VM DA (TH+) neurons [2]; wild type neurons): 55% | CTL proliferation (OT-1 CTL cells): induced similar CTL proliferation by both DC and VM neuronal cultures
